Experimental data taken from patent US20070148660A1, “Treatment of maladaptive substance use with H-ras antagonists” (The Regents of the University of California, priority 2005, published 2007).

Tested on: NR2A subunit of the NMDAR
Assay: BS3 cross-linking, surface vs internalized NR2A in hippocampal slices
Assay type: cell-based, mouse
Protocol: Transverse hippocampal slices ([…]) were prepared from 10- to 12-week-old C57BL/6J mice. Slices were allowed to recover for 90 min in artificial cerebrospinal fluid (aCSF) saturated with 95% O2/5% CO2 containing (in mM): 126 NaCl, 1.2 KCl, 1.2 NaH2PO4, 1.2 MgCl2, 2.4 CaCl2, 18 NaHCO3, and 11 glucose. Following recovery, slices were treated with aCSF (control) or ethanol at room temperature, after which the slices were rinsed in cold aCSF, and used either for cross-linking experiments, for Ras activity assay, or for immunoprecipitation. In experiments using Tat-H-Ras DN or the Tat-peptide, the slices were pretreated with either aCSF (control) or 2 μM Tat-H-Ras DN or Tat-peptide for 2 hrs at room temperature, followed by ethanol treatments.
Cross-linking was performed as described previously (22), with minor modifications. Following treatment, the slices were placed in cold aCSF in the presence or absence of 2 mg/ml of the cross-linking reagent BS^3 for 45 min at 4° C. while shaking. Slices were then rinsed three times with cold aCSF containing 20 mM Tris (pH 7.6), followed by sonication in cold homogenization buffer (10% SDS, 10 mM EDTA, 100 mM Tris (pH 8.0), and protease and phosphatase inhibitor cocktails). The protein concentration was determined using the BCA assay, followed by SDS-PAGE and Western blot analysis. Data are expressed as ratio of normalized surface expressed or internalized receptors to the total receptor levels.
Proteins were separated by SDS-PAGE and blotted onto a nitrocellulose membrane. After blocking, the membranes were incubated with the specific primary antibody, followed by horseradish peroxidase-conjugated secondary antibody. Detection was obtained followed by enhanced chemiluminescent reaction (Amersham Biosciences), and processed using the STORM PhosphoImager (Amersham Biosciences). Results were quantified by NIH Image 1.61.

## CCO [ethanol]
100 mM ethanol 15 min, washed out, 15 min recovery
  change in subcellular localization of NR2A after ethanol washout: not observed
100 mM ethanol, 15 min, hippocampal slices
  intracellular level of NR2A: significant increase
100 mM ethanol, 15 min, slices from Fyn+/+ and Fyn-/- mice
  NR2A internalization in Fyn+/+ and Fyn-/- mice: significantly enhanced
100 mM ethanol, 15 min, slices from Src+/+ mice
  internalization of the NR2A subunits in Src+/+ mice: significantly increased
100 mM ethanol, 15 min, slices from Src+/- mice, NR2A internalized under basal conditions
  NR2A internalization in Src+/- mice upon ethanol: no additional changes
Ethanol as low as 25 mM, 15 min, hippocampal slices
  surface expression of the NR2A subunit at lower ethanol concentrations: reduction
